Results published in ChEMBL document CHEMBL1201862, “PubChem BioAssay data set” (2004).
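Method: 48-hour compound exposure of cells in 96-well plates, five concentrations, linear interpolation of endpoints. GI50 is the concentration that inhibits growth by half.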 The source made the active and inactive calls. Rule as the data show it: active = GI50 up to about 1.1 µM and inactive = higher.

How the values were obtained:
Experiment in all cases: NCI anticancer screen, dose series, 48 h
A498 = test system: A498
DLD-1 = test system: DLD-1
DMS-114 = test system: DMS-114
DMS-273 = test system: DMS-273
HOP-92 = test system: HOP-92
KM-20L2 = test system: KM-20L2
M19-MEL = test system: M19-MEL
MOLT-4 = test system: MOLT-4
NCI-H23 = test system: NCI-H23
NCI/ADR-RES = test system: NCI/ADR-RES
OVCAR-8 = test system: OVCAR-8
SF-539 = test system: SF-539
SK-MEL-2 = test system: SK-MEL-2
SW-620 = test system: SW-620
XF498 = test system: XF498
TK-10 = test system: TK-10
BT-549 = test system: BT-549
MDA-N = test system: MDA-N
PC-3 = test system: PC-3
DU-145 = test system: DU-145

Row | Compound | GI50 (A498) | GI50 (DLD-1) | GI50 (DMS-114) | GI50 (DMS-273) | GI50 (HOP-92) | GI50 (KM-20L2) | GI50 (M19-MEL) | GI50 (MOLT-4) | GI50 (NCI-H23) | GI50 (NCI/ADR-RES) | GI50 (OVCAR-8) | GI50 (SF-539) | GI50 (SK-MEL-2) | GI50 (SW-620) | GI50 (XF498) | GI50 (TK-10) | GI50 (BT-549) | GI50 (MDA-N) | GI50 (PC-3) | GI50 (DU-145)
1 | COc1cc(/C=C/C(=O)O)ccc1C(=O)O/C=C/c1ccccc1 | > 85.3 µM (inactive) | > 100 µM (inactive) | > 100 µM (inactive) | > 100 µM (inactive) | > 100 µM (inactive) | > 100 µM (inactive) | > 81.7 µM (inactive) | 65.9 µM (inactive) | > 100 µM (inactive) | > 100 µM (inactive) | > 67.5 µM (inactive) | > 100 µM (inactive) | > 100 µM (inactive) | > 100 µM (inactive) | > 100 µM (inactive) | – | – | – | – | –
2 | CC(C)C(=O)CC(c1ccc(Br)cc1)N1N=C(C(C)C)CC1c1ccc(Br)cc1 (stereo not drawn) | – | – | 27.9 µM (inactive) | 38.1 µM (inactive) | 31.4 µM (inactive) | 45.3 µM (inactive) | 25.9 µM (inactive) | 31.3 µM (inactive) | > 100 µM (inactive) | – | > 100 µM (inactive) | > 100 µM (inactive) | 53.6 µM (inactive) | 93.3 µM (inactive) | 21 µM (inactive) | > 100 µM (inactive) | – | – | – | –
3 | COc1ccc2[nH]c3c(C)c4ccnc(NCCCN(C)CCCNc5ccc6nnn7c8ccccc8c(=O)c5c67)c4c(C)c3c2c1 | 1.35 µM (inactive) | – | – | – | – | – | – | 0.00104 µM (active) | 0.745 µM (active) | 0.982 µM (active) | 0.297 µM (active) | 0.237 µM (active) | > 10 µM (inactive) | 0.013 µM (active) | – | 1.07 µM (active) | 1.83 µM (inactive) | 0.583 µM (active) | 0.597 µM (active) | –
4 | ICC1CCCO1 (stereo not drawn) | > 100 µM (inactive) | > 100 µM (inactive) | > 100 µM (inactive) | > 100 µM (inactive) | > 100 µM (inactive) | > 100 µM (inactive) | – | > 100 µM (inactive) | > 100 µM (inactive) | – | > 100 µM (inactive) | > 100 µM (inactive) | > 100 µM (inactive) | > 100 µM (inactive) | > 100 µM (inactive) | > 100 µM (inactive) | – | – | – | –
5 | CC(C)=CCc1c(C)cc2cc3c(c(O)c2c1O)C(=O)C=C(O)C3(CC=C(C)C)C/C=C(\C)CO (stereo not drawn) | 8.81 µM (inactive) | 32.7 µM (inactive) | 38.9 µM (inactive) | 52.8 µM (inactive) | 33.2 µM (inactive) | 39.9 µM (inactive) | 37.4 µM (inactive) | 23.2 µM (inactive) | 37.4 µM (inactive) | 47.9 µM (inactive) | 28.8 µM (inactive) | 39.1 µM (inactive) | 13 µM (inactive) | 39.8 µM (inactive) | 16.4 µM (inactive) | – | – | – | – | –
6 | O=C1c2ccccc2C(=O)N1CC(CN1C(=O)c2ccccc2C1=O)(C(=O)OCc1ccccc1)C(=O)OCc1ccccc1 | > 100 µM (inactive) | – | – | – | > 100 µM (inactive) | – | – | 7.36 µM (inactive) | > 100 µM (inactive) | > 100 µM (inactive) | > 100 µM (inactive) | – | > 100 µM (inactive) | – | – | – | > 100 µM (inactive) | > 100 µM (inactive) | > 100 µM (inactive) | > 100 µM (inactive)
7 | COC(=O)NCCc1n[nH]c2c1C(=O)C=C(N1CCOCC1)C2=O | > 100 µM (inactive) | – | – | – | > 100 µM (inactive) | – | – | > 100 µM (inactive) | > 100 µM (inactive) | > 100 µM (inactive) | > 100 µM (inactive) | > 100 µM (inactive) | > 100 µM (inactive) | > 100 µM (inactive) | – | > 100 µM (inactive) | > 100 µM (inactive) | > 100 µM (inactive) | > 100 µM (inactive) | > 100 µM (inactive)
8 | CC(=O)OC1CCn2c1nc1cc([N+](=O)[O-])c(C)cc12 (stereo not drawn) | > 100 µM (inactive) | – | – | – | > 100 µM (inactive) | – | – | > 100 µM (inactive) | > 100 µM (inactive) | > 100 µM (inactive) | > 100 µM (inactive) | > 100 µM (inactive) | > 100 µM (inactive) | > 100 µM (inactive) | – | – | > 100 µM (inactive) | > 100 µM (inactive) | > 100 µM (inactive) | > 100 µM (inactive)
9 | FC(F)(F)C1=NC(=NNc2nnc(-c3ccccc3)c(-c3ccccc3)n2)N=C(C(F)(F)F)C1 | 11.6 µM (inactive) | 12.6 µM (inactive) | 6.14 µM (inactive) | 5.86 µM (inactive) | 15.8 µM (inactive) | 16.8 µM (inactive) | 21.8 µM (inactive) | 5.51 µM (inactive) | 19.5 µM (inactive) | 67.6 µM (inactive) | 25.8 µM (inactive) | 32.9 µM (inactive) | 24.5 µM (inactive) | 27.3 µM (inactive) | 20 µM (inactive) | – | – | – | – | –
10 | O=C1C=C(N2CC2)C(=O)C=C1N1CC1 | 0.0318 µM (active) | 0.117 µM (active) | – | 0.0617 µM (active) | 0.44 µM (active) | 0.354 µM (active) | – | 0.0344 µM (active) | 0.0904 µM (active) | 0.757 µM (active) | – | 0.0931 µM (active) | 0.12 µM (active) | 0.0891 µM (active) | 0.105 µM (active) | 0.136 µM (active) | 0.348 µM (active) | 0.515 µM (active) | 1.11 µM (active) | 0.339 µM (active)
11 | CC1(C)CCCCCC(C)(CCCO)C1=O (stereo not drawn) | > 100 µM (inactive) | – | – | – | > 100 µM (inactive) | – | – | > 100 µM (inactive) | > 100 µM (inactive) | > 100 µM (inactive) | > 100 µM (inactive) | – | > 100 µM (inactive) | > 100 µM (inactive) | – | – | > 100 µM (inactive) | – | > 100 µM (inactive) | > 100 µM (inactive)
12 | C[C@H](CN1CC(=O)NC(=O)C1)N1CC(=O)NC(=O)C1 | > 64.6 µM (inactive) | > 86.5 µM (inactive) | 0.18 µM (active) | > 100 µM (inactive) | > 100 µM (inactive) | > 87.7 µM (inactive) | > 100 µM (inactive) | 9.89 µM (inactive) | > 86.1 µM (inactive) | > 100 µM (inactive) | > 100 µM (inactive) | > 100 µM (inactive) | > 10 µM (inactive) | > 47.3 µM (inactive) | > 100 µM (inactive) | – | – | – | – | –
13 | COc1ccc2c(c1)CCCc1cn[nH]c1-2 | > 100 µM (inactive) | > 100 µM (inactive) | > 100 µM (inactive) | > 100 µM (inactive) | > 100 µM (inactive) | > 100 µM (inactive) | > 100 µM (inactive) | > 100 µM (inactive) | > 100 µM (inactive) | > 100 µM (inactive) | > 100 µM (inactive) | > 100 µM (inactive) | > 100 µM (inactive) | > 100 µM (inactive) | > 100 µM (inactive) | – | – | – | – | –
14 | CC(C)C1OC(=O)/C=C/C=C/C=C/C=C/C=C/CC(O)C(C)C(O)CC(O)CC(O)CC(O)CC(O)CC(O)CC(O)/C=C/C1C (stereo not drawn) | > 100 µM (inactive) | – | – | – | > 100 µM (inactive) | – | – | > 100 µM (inactive) | > 100 µM (inactive) | > 100 µM (inactive) | > 100 µM (inactive) | > 100 µM (inactive) | > 100 µM (inactive) | > 100 µM (inactive) | – | > 100 µM (inactive) | – | – | > 100 µM (inactive) | –
15 | CCCNC1=NC(C)=CSC(Nc2ccccc2)=C1C#N | > 100 µM (inactive) | – | – | – | – | – | – | > 100 µM (inactive) | > 100 µM (inactive) | > 100 µM (inactive) | > 100 µM (inactive) | > 100 µM (inactive) | > 100 µM (inactive) | > 100 µM (inactive) | – | > 100 µM (inactive) | – | > 100 µM (inactive) | > 100 µM (inactive) | > 100 µM (inactive)
16 | CCOC(=O)C1(C(=O)OCC)CSC1 | 42 µM (inactive) | – | – | – | > 100 µM (inactive) | – | – | > 100 µM (inactive) | > 100 µM (inactive) | > 100 µM (inactive) | > 100 µM (inactive) | – | – | > 100 µM (inactive) | – | > 100 µM (inactive) | – | > 100 µM (inactive) | > 100 µM (inactive) | > 100 µM (inactive)
17 | O=C1C2=C(C3=NCCc4c[nH]c1c43)C1(C=C(Br)C(O)C(Br)=C1)CCN2 (stereo not drawn) | 9.95 µM (inactive) | 1.67 µM (inactive) | 0.202 µM (active) | 1.03 µM (active) | 2.92 µM (inactive) | 0.317 µM (active) | 0.38 µM (active) | 0.721 µM (active) | 0.792 µM (active) | 0.421 µM (active) | 0.647 µM (active) | 2.05 µM (inactive) | 3.2 µM (inactive) | 0.541 µM (active) | 7.67 µM (inactive) | – | – | – | – | –
18 | N#Cc1c(NC(=S)Nc2ccc(Cl)cc2)sc2c1CCCC2 | > 100 µM (inactive) | – | – | – | – | – | – | 16.6 µM (inactive) | > 100 µM (inactive) | 65.3 µM (inactive) | 14.8 µM (inactive) | – | > 100 µM (inactive) | > 100 µM (inactive) | – | > 100 µM (inactive) | > 100 µM (inactive) | > 100 µM (inactive) | > 100 µM (inactive) | > 100 µM (inactive)
19 | OCC(CO)CC1COc2ccccc2O1 (stereo not drawn) | > 10 µM (inactive) | – | – | – | – | – | – | > 10 µM (inactive) | > 10 µM (inactive) | > 10 µM (inactive) | > 10 µM (inactive) | > 10 µM (inactive) | > 10 µM (inactive) | > 10 µM (inactive) | – | > 10 µM (inactive) | – | > 10 µM (inactive) | > 10 µM (inactive) | > 10 µM (inactive)
